In patent EP1897937A1, “Method of culturing NPCs” (NeuroProgen GmbH Leipzig, priority 2006, dated 2008):

System: hmNPCs
Assay: Long-term proliferation: number of living cells (hemocytometer, trypan blue exclusion)
Assay type: cell-based, human
Experimental: To determine long-term proliferation, hmNPCs were plated and expanded for 2 passages with or without addition of various agents (see below) to the custom expansion media containing the growth factors EGF and FGF2. Different fetal midbrain tissues were included in this study. At the end of the proliferation period, differentiation of hmNPCs was induced via replacement of expansion media with mitogen-free media containing 1% FCS, 5 µM forskoline (Sigma-Aldrich Chemie GmbH Munich, Germany), and 100 pg/ml IL-1β (Sigma). The differentiation and expansion media were supplemented with different drugs as appropriate. Prior to immunocytochemistry or protein extraction, hmNPCs were allowed to differentiate for 1 week. To determine short-term proliferation via Ki67 immunostaining, the cells were seeded into 24-well plates (70,000 cells/well) and left overnight to rest. P2 receptor agonists (ATP, UTP, ATP + UTP, ADP, ADPβS) were supplied daily for 5 consecutive days. Ki67/nestin double-positive cells were counted in 8 randomly selected fields of nucleotide-treated or untreated samples. For the assessment of MAPK phosphorylation the cells were kept free of mitogens for 2 d prior to addition of the MEK-inhibitor in expansion media. In addition, the MEK-inhibitor was added during the differentiation period 15 min before UTP administration.
UTP, UDP, ATP, ADP, ADPβS and suramin were purchased from Sigma (Sigma-Aldrich Chemie GmbH Munich, Germany). UTP and UDP were applied at different concentrations (1 µM, 10 µM, 100 µM), ATP at 100 µM, ADP at 100 µM, and ADPβS at100 µM. During expansion of the cells, the nucleotides were renewed once a week with every media change, unless otherwise stated. They were applied once at the beginning of the differentiation period. The P2 receptor antagonist suramin (10 µM) was added to expansion media 30 min prior to addition of UTP (100 µM). The stock solution of the MEK1/2 inhibitor U0126 (Promega Corporation, Mannheim, Germany) was prepared in dimethyl sulfoxide (DMSO) at a concentration of 10 mM. The stock solution was then diluted in 0.1 M PBS to obtain a concentration of 1 mM. MEK inhibitor (final concentration 10 µM) was added to mitogen-free expansion media, 15 min before UTP treatment (1 µM) of hmNPCs.
Cell counting of control (untreated) and treated hmNPCs was performed using a hemocytometer. Adherent cells were collected by detachment with accutase™ (PAA Laboratories, Pasching, Austria) for 10 min at 37°C. […] The number of total and trypan blue-positive cells was then determined by counting at least 300 cells per sample in a hemocytometer.

Structure (SMILES): O=c1ccn([C@@H]2O[C@H](COP(=O)(O)OP(=O)(O)OP(=O)(O)O)[C@@H](O)[C@H]2O)c(=O)[nH]1 [UTP, uridine 5'-triphosphate]
- number of living cells (100 µM each, 2 weeks in expansion media, on coapplication ADP 30 min before UTP, 20160 min): 110 ± 6%
- activity at 1 µM (Homo sapiens, 336 h, 1 µM, 2 passages (approximately 2 weeks of expansion), control 100 ± 5%, read-out: number of living cells as compared to controls): 152 ± 6%
- performance of proliferating hmNPCs grown without mitogens (without EGF and FGF2, 1 µM once in 5 days): performed slightly better
